Legend:
Experiment in all cases: relative viability (nuclei count vs DMSO), 5 days (fraction); higher = more cells survive
BEN = test system: BEN
In short: (§1)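 Relative viability was taken as the ratio of nuclei in treated wells to nuclei in vehicle wells. Lung cancer cell lines in 1536-well plates received compounds by pin tool one day after seeding, either one drug alone or a fixed anchor-drug dose plus five library-drug doses (not always all listed) in √10 steps. Nuclei were counted on 4× images after 5 days of treatment, and values are medians of duplicate plates.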

CAL-12T = test system: CAL-12T
In short: as §1

EKVX = test system: EKVX
In short: as §1

HCC-44 = test system: HCC-44
In short: as §1

LOU-NH91 = test system: LOU-NH91
In short: as §1

LU99A = test system: LU99A
In short: as §1

NCI-H1355 = test system: NCI-H1355
In short: as §1

NCI-H1395 = test system: NCI-H1395
In short: as §1

NCI-H1437 = test system: NCI-H1437
In short: as §1

NCI-H1563 = test system: NCI-H1563
In short: as §1

NCI-H1650 = test system: NCI-H1650
In short: as §1

NCI-H1651 = test system: NCI-H1651
In short: as §1

NCI-H1734 = test system: NCI-H1734
In short: as §1

NCI-H1755 = test system: NCI-H1755
In short: as §1

NCI-H1975 = test system: NCI-H1975
In short: as §1

NCI-H2023 = test system: NCI-H2023
In short: as §1

NCI-H2085 = test system: NCI-H2085
In short: as §1

NCI-H2342 = test system: NCI-H2342
In short: as §1

NCI-H358 = test system: NCI-H358
In short: as §1

NCI-H441 = test system: NCI-H441
In short: as §1

NCI-H460 = test system: NCI-H460
In short: as §1

NCI-H838 = test system: NCI-H838
In short: as §1

For `NC(=O)Nc1cc(-c2cccc(F)c2)sc1C(=O)N[C@H]1CCCNC1` [AZD7762] + CCNC(=O)c1noc(-c2cc(C(C)C)c(O)cc2O)c1-c1ccc(CN2CCOCC2)cc1 [Luminespib] (partner 0.01 µM), the relative viability (BEN; first compound 0.01 µM) was 0.16, the relative viability (BEN; first compound 0.03162 µM) was 0.665 and the relative viability (BEN; first compound 0.1 µM) was 0.188. It also gave a relative viability (BEN; first compound 0.3162 µM) of 0.43, a relative viability (BEN; first compound 1 µM) of 0.533 and a relative viability (CAL-12T; first compound 0.01 µM) of 0.331. It also gave a relative viability (CAL-12T; first compound 0.03162 µM) of 0.397, a relative viability (CAL-12T; first compound 0.1 µM) of 0.17 and a relative viability (CAL-12T; first compound 0.3162 µM) of 0.147. For the same compound, the relative viability (CAL-12T; first compound 1 µM) was 0.223, the relative viability (EKVX; first compound 0.01 µM) was 0.827 and the relative viability (EKVX; first compound 0.03162 µM) was 0.88. The relative viability (EKVX; first compound 0.1 µM) was 0.826, the relative viability (EKVX; first compound 0.3162 µM) was 0.82 and the relative viability (EKVX; first compound 1 µM) was 0.65. For the same compound, the relative viability (HCC-44; first compound 0.01 µM) was 1.14, the relative viability (HCC-44; first compound 0.03162 µM) was 0.997 and the relative viability (HCC-44; first compound 0.1 µM) was 0.918. The relative viability (HCC-44; first compound 0.3162 µM) was 0.96, the relative viability (HCC-44; first compound 1 µM) was 0.423 and the relative viability (LOU-NH91; first compound 0.01 µM) was 0.302. For the same compound, the relative viability (LOU-NH91; first compound 0.03162 µM) was 0.317, the relative viability (LOU-NH91; first compound 0.1 µM) was 0.403 and the relative viability (LOU-NH91; first compound 0.3162 µM) was 0.309. The relative viability (LOU-NH91; first compound 1 µM) was 0.379, the relative viability (LU99A; first compound 0.01 µM) was 0.255 and the relative viability (LU99A; first compound 0.03162 µM) was 0.265. The relative viability (LU99A; first compound 0.1 µM) was 0.357, the relative viability (LU99A; first compound 0.3162 µM) was 0.201 and the relative viability (LU99A; first compound 1 µM) was 0.207. For the same compound, the relative viability (NCI-H1355; first compound 0.01 µM) was 0.709, the relative viability (NCI-H1355; first compound 0.03162 µM) was 0.751 and the relative viability (NCI-H1355; first compound 0.1 µM) was 0.812. It also gave a relative viability (NCI-H1355; first compound 0.3162 µM) of 0.717, a relative viability (NCI-H1355; first compound 1 µM) of 0.581 and a relative viability (NCI-H1395; first compound 0.01 µM) of 0.699. For the same compound, the relative viability (NCI-H1395; first compound 0.03162 µM) was 0.788, the relative viability (NCI-H1395; first compound 0.1 µM) was 0.888 and the relative viability (NCI-H1395; first compound 0.3162 µM) was 0.468. The relative viability (NCI-H1395; first compound 1 µM) was 0.341, the relative viability (NCI-H1437; first compound 0.01 µM) was 1.17 and the relative viability (NCI-H1437; first compound 0.03162 µM) was 1.18. It also gave a relative viability (NCI-H1437; first compound 0.1 µM) of 1.2, a relative viability (NCI-H1437; first compound 0.3162 µM) of 1.13 and a relative viability (NCI-H1437; first compound 1 µM) of 0.79. For the same compound, the relative viability (NCI-H1563; first compound 0.01 µM) was 0.524, the relative viability (NCI-H1563; first compound 0.03162 µM) was 0.507 and the relative viability (NCI-H1563; first compound 0.1 µM) was 0.523. It also gave a relative viability (NCI-H1563; first compound 0.3162 µM) of 0.505, a relative viability (NCI-H1563; first compound 1 µM) of 0.475 and a relative viability (NCI-H1650; first compound 0.01 µM) of 0.191. For the same compound, the relative viability (NCI-H1650; first compound 0.03162 µM) was 0.175, the relative viability (NCI-H1650; first compound 0.1 µM) was 0.22 and the relative viability (NCI-H1650; first compound 0.3162 µM) was 0.186. It also gave a relative viability (NCI-H1650; first compound 1 µM) of 0.192, a relative viability (NCI-H1651; first compound 0.01 µM) of 0.98 and a relative viability (NCI-H1651; first compound 0.03162 µM) of 0.872. The relative viability (NCI-H1651; first compound 0.1 µM) was 0.802, the relative viability (NCI-H1651; first compound 0.3162 µM) was 0.487 and the relative viability (NCI-H1651; first compound 1 µM) was 0.215. The relative viability (NCI-H1734; first compound 0.01 µM) was 0.219, the relative viability (NCI-H1734; first compound 0.03162 µM) was 0.219 and the relative viability (NCI-H1734; first compound 0.1 µM) was 0.146. The relative viability (NCI-H1734; first compound 0.3162 µM) was 0.162, the relative viability (NCI-H1734; first compound 1 µM) was 0.157 and the relative viability (NCI-H1755; first compound 0.01 µM) was 0.498. It also gave a relative viability (NCI-H1755; first compound 0.03162 µM) of 0.344, a relative viability (NCI-H1755; first compound 0.1 µM) of 0.244 and a relative viability (NCI-H1755; first compound 0.3162 µM) of 0.225. For the same compound, the relative viability (NCI-H1755; first compound 1 µM) was 0.275, the relative viability (NCI-H1975; first compound 0.01 µM) was 0.21 and the relative viability (NCI-H1975; first compound 0.03162 µM) was 0.201. The relative viability (NCI-H1975; first compound 0.1 µM) was 0.0969, the relative viability (NCI-H1975; first compound 0.3162 µM) was 0.173 and the relative viability (NCI-H1975; first compound 1 µM) was 0.127. It also gave a relative viability (NCI-H2023; first compound 0.01 µM) of 0.824, a relative viability (NCI-H2023; first compound 0.03162 µM) of 0.498 and a relative viability (NCI-H2023; first compound 0.1 µM) of 0.228. It also gave a relative viability (NCI-H2023; first compound 0.3162 µM) of 0.141, a relative viability (NCI-H2023; first compound 1 µM) of 0.114 and a relative viability (NCI-H2085; first compound 0.01 µM) of 0.47. The relative viability (NCI-H2085; first compound 0.03162 µM) was 0.468, the relative viability (NCI-H2085; first compound 0.1 µM) was 0.475 and the relative viability (NCI-H2085; first compound 0.3162 µM) was 0.459. It also gave a relative viability (NCI-H2085; first compound 1 µM) of 0.374, a relative viability (NCI-H2342; first compound 0.01 µM) of 0.69 and a relative viability (NCI-H2342; first compound 0.03162 µM) of 0.696. For the same compound, the relative viability (NCI-H2342; first compound 0.1 µM) was 0.731, the relative viability (NCI-H2342; first compound 0.3162 µM) was 0.819 and the relative viability (NCI-H2342; first compound 1 µM) was 0.676. For the same compound, the relative viability (NCI-H358; first compound 0.01 µM) was 0.275, the relative viability (NCI-H358; first compound 0.03162 µM) was 0.292 and the relative viability (NCI-H358; first compound 0.1 µM) was 0.307. For the same compound, the relative viability (NCI-H358; first compound 0.3162 µM) was 0.545, the relative viability (NCI-H358; first compound 1 µM) was 0.142 and the relative viability (NCI-H441; first compound 0.01 µM) was 0.402. It also gave a relative viability (NCI-H441; first compound 0.03162 µM) of 0.489, a relative viability (NCI-H441; first compound 0.1 µM) of 0.285 and a relative viability (NCI-H441; first compound 0.3162 µM) of 0.436. The relative viability (NCI-H441; first compound 1 µM) was 0.212, the relative viability (NCI-H460; first compound 0.01 µM) was 0.0439 and the relative viability (NCI-H460; first compound 0.03162 µM) was 0.0339. It also gave a relative viability (NCI-H460; first compound 0.1 µM) of 0.036, a relative viability (NCI-H460; first compound 0.3162 µM) of 0.026 and a relative viability (NCI-H460; first compound 1 µM) of 0.0276. For the same compound, the relative viability (NCI-H838; first compound 0.01 µM) was 0.277, the relative viability (NCI-H838; first compound 0.03162 µM) was 0.336 and the relative viability (NCI-H838; first compound 0.1 µM) was 0.199. It also gave a relative viability (NCI-H838; first compound 0.3162 µM) of 0.157 and a relative viability (NCI-H838; first compound 1 µM) of 0.174.

From the supplement of paper PMC10307832
